Calls of active or inactive are those of the source. The calls are words filed in the database; no cut-off is given here.
What was measured:
Assay type in all cases: functional, organism-based
Rattus norvegicus [1] = assay: Compound was tested for carcinogenic activity on other sites after intraperitoneal administration of the compound; + denotes carcinogenic activity.
Rattus norvegicus [2] = assay: Carcinogenic activity on breast after intraperitoneal administration
Rattus norvegicus [3] = assay: Carcinogenic activity on all sites after intraperitoneal administration
Rattus norvegicus [4] = assay: Carcinogenic activity on all sites after subcutaneous administration
Rattus norvegicus [5] = assay: Compound was tested for carcinogenic activity on mixed data after subcutaneous administration of the compound; + denotes carcinogenic activity.
Rattus norvegicus [6] = assay: Carcinogenic activity on breast after subcutaneous administration
Rattus norvegicus [7] = assay: Carcinogenic activity on breast after oral administration of the compound
Rattus norvegicus [8] = assay: Compound was tested for carcinogenic activity on ear duct after oral administration of the compound; na denotes data not available.
Rattus norvegicus [9] = assay: Carcinogenic activity on liver after oral administration
Rattus norvegicus [10] = assay: Carcinogenic activity on all sites after oral administration
Rattus norvegicus [11] = assay: Carcinogenic activity on other sites after subcutaneous administration
Rattus norvegicus [12] = assay: Carcinogenic activity on liver after subcutaneous administration
Rattus norvegicus [13] = assay: Compound was tested for carcinogenic activity on liver after oral administration of the compound; na denotes data not available.
Rattus norvegicus [14] = assay: Carcinogenic activity on other sites after oral administration
Rattus norvegicus [15] = assay: Carcinogenic activity on ear duct after oral administration
Rattus norvegicus [16] = assay: Compound was tested for carcinogenic activity on mixed data after oral administration of the compound; + denotes four or five active sites.
Rattus norvegicus [17] = assay: Carcinogenic activity on liver after oral administration of the compound
Rattus norvegicus [18] = assay: Carcinogenic activity on ear duct after oral administration of the compound; - denotes non carcinogenic activity.
Rattus norvegicus [19] = assay: Carcinogenic activity on mixed data after oral administration
Rattus norvegicus [20] = assay: Carcinogenic activity after oral administration
Rattus norvegicus [21] = assay: Tested for carcinogenic activity on breast after oral administration of the compound; - denotes non carcinogenic activity.
Rattus norvegicus [22] = assay: Carcinogenic activity on ear duct after subcutaneous administration
Rattus norvegicus [23] = assay: Compound was tested for carcinogenic activity on ear duct after oral administration of the compound; na denotes not available.
Rattus norvegicus [24] = assay: Compound was tested for carcinogenic activity on ear duct after oral administration of the compound; + denotes carcinogenic activity.
Rattus norvegicus [25] = assay: Compound was tested for carcinogenic activity on other sites after subcutaneous administration of the compound; + denotes carcinogenic activity
Rattus norvegicus [26] = assay: Compound was tested for carcinogenic activity on all sites after subcutaneous administration of the compound; + denotes carcinogenic activity
Rattus norvegicus [27] = assay: Compound was tested for carcinogenic activity on ear duct after various routes administration of the compound; + denotes carcinogenic activity.
Rattus norvegicus [28] = assay: Compound was tested for carcinogenic various routes subcutaneous administration of the compound; + denotes carcinogenic activity.
Rattus norvegicus [29] = assay: Compound was tested for carcinogenic activity on liver after various routes administration of the compound; + denotes carcinogenic activity.
Rattus norvegicus [30] = assay: Compound was tested for carcinogenic activity on mixed data after various routes administration of the compound; + denotes carcinogenic activity.
Rattus norvegicus [31] = assay: Compound was tested for carcinogenic activity on other sites after various routes administration of the compound; + denotes carcinogenic activity.
Rattus norvegicus [32] = assay: Compound was tested for carcinogenic activity on breast after various routes administration of the compound; + denotes carcinogenic activity.
Rattus norvegicus [33] = assay: Compound was tested for carcinogenic activity on all sites after various routes administration of the compound; + denotes carcinogenic activity.
Rattus norvegicus [34] = assay: Compound was tested for carcinogenic activity on mixed data after various routes administration of the compound; + denotes carcinogenic activity
Rattus norvegicus [35] = assay: Compound was tested for carcinogenic activity on liver after subcutaneous administration of the compound; + denotes carcinogenic activity
Rattus norvegicus [36] = assay: Compound was tested for carcinogenic activity on all sites after subcutaneous administration of the compound; + denotes carcinogenic activity.
Rattus norvegicus [37] = assay: Compound was tested for carcinogenic activity on breast after topical administration of the compound; + denotes carcinogenic activity.
Rattus norvegicus [38] = assay: Compound was tested for carcinogenic activity on other sites after topical administration of the compound; + denotes carcinogenic activity.
Rattus norvegicus [39] = assay: Compound was tested for carcinogenic activity on all sites after topical administration of the compound; + denotes carcinogenic activity.
Rattus norvegicus [40] = assay: Compound was tested for carcinogenic activity on mixed data after various routes administration of the compound; + denotes four or five active sites

## O=S(=O)(c1ccccc1)N(O)c1ccc2c(c1)Cc1ccccc1-2
Rattus norvegicus [1]
  Activity: Carcinogenic activity
Rattus norvegicus [2]
  Activity: Carcinogenic activity
Rattus norvegicus [3]
  Activity: Carcinogenic activity

## Nc1c2ccccc2cc2ccccc12
Rattus norvegicus [4]
  Activity: Carcinogenic activity
Rattus norvegicus [5]
  Activity: Carcinogenic activity
Rattus norvegicus [6]
  Activity: Carcinogenic activity

## CC(=O)Nc1ccc2c(c1)C(=O)c1ccccc1-2
Rattus norvegicus [7]
  Activity: Carcinogenic activity
Rattus norvegicus [8]
  Activity: inactive
Rattus norvegicus [9]
  Activity: Carcinogenic activity
Rattus norvegicus [10]
  Activity: Carcinogenic activity

## N#Cc1cc(/C=C/c2ccccc2)ccc1N
Rattus norvegicus [4]
  Activity: Carcinogenic activity
Rattus norvegicus [11]
  Activity: Carcinogenic activity
Rattus norvegicus [12]
  Activity: Carcinogenic activity

## Nc1ccc(Cc2ccc(N)cc2)cc1
Rattus norvegicus [13]
  Activity: inactive

## CC(=O)Nc1ccc(-c2ccccc2)cc1
Rattus norvegicus [7]
  Activity: Carcinogenic activity
Rattus norvegicus [10]
  Activity: Carcinogenic activity
Rattus norvegicus [14]
  Activity: Carcinogenic activity
Rattus norvegicus [15]
  Activity: Carcinogenic activity
Rattus norvegicus [16]
  Activity: Carcinogenic activity

## O=C(c1ccccc1)N(O)c1ccc2c(c1)Cc1ccccc1-2
Rattus norvegicus [1]
  Activity: Carcinogenic activity
Rattus norvegicus [2]
  Activity: Carcinogenic activity
Rattus norvegicus [3]
  Activity: Carcinogenic activity

## CC(=O)Nc1ccc2[nH]c3ccccc3c2c1
Rattus norvegicus [10]
  Activity: inactive
Rattus norvegicus [17]
  Activity: inactive
Rattus norvegicus [18]
  Activity: inactive
Rattus norvegicus [19]
  Activity: inactive
Rattus norvegicus [20]
  Activity: inactive
Rattus norvegicus [21]
  Activity: inactive

## Cc1cc(-c2ccc(N)c(C)c2)ccc1N
Rattus norvegicus [4]
  Activity: Carcinogenic activity
Rattus norvegicus [5]
  Activity: Carcinogenic activity
Rattus norvegicus [11]
  Activity: Carcinogenic activity
Rattus norvegicus [15]
  Activity: Carcinogenic activity
Rattus norvegicus [6]
  Activity: Carcinogenic activity

## COc1cccc(-c2cccc(OC)c2N)c1N
Rattus norvegicus [8]
  Activity: inactive

## CC(=O)Nc1ccc2c(c1)-c1ccccc1C2
Rattus norvegicus [2]
  Activity: Carcinogenic activity
Rattus norvegicus [3]
  Activity: Carcinogenic activity

## CC(=O)N(C(C)=O)c1ccc(/C=C/c2ccccc2)cc1
Rattus norvegicus [4]
  Activity: Carcinogenic activity
Rattus norvegicus [11]
  Activity: Carcinogenic activity
Rattus norvegicus [22]
  Activity: Carcinogenic activity

## Nc1ccc(/C=C/c2ccc(N)cc2Cl)c(Cl)c1
Rattus norvegicus [4]
  Activity: Carcinogenic activity
Rattus norvegicus [12]
  Activity: Carcinogenic activity

## COc1c(N)ccc2c1Cc1ccccc1-2
Rattus norvegicus [23]
  Activity: inactive
Rattus norvegicus [9]
  Activity: Carcinogenic activity
Rattus norvegicus [10]
  Activity: Carcinogenic activity
Rattus norvegicus [14]
  Activity: Carcinogenic activity

## CN(C)c1ccc(-c2ccccc2)cc1
Rattus norvegicus [7]
  Activity: Carcinogenic activity
Rattus norvegicus [10]
  Activity: Carcinogenic activity
Rattus norvegicus [14]
  Activity: Carcinogenic activity
Rattus norvegicus [24]
  Activity: Carcinogenic activity
Rattus norvegicus [19]
  Activity: Carcinogenic activity

## Cc1cccc(-c2ccc(N)cc2C)c1
Rattus norvegicus [25]
  Activity: Carcinogenic activity
Rattus norvegicus [26]
  Activity: Carcinogenic activity

## CC(=O)Nc1ccc(-c2ccc(NC(C)=O)cc2C)cc1
Rattus norvegicus [7]
  Activity: Carcinogenic activity
Rattus norvegicus [10]
  Activity: Carcinogenic activity
Rattus norvegicus [14]
  Activity: Carcinogenic activity
Rattus norvegicus [15]
  Activity: Carcinogenic activity
Rattus norvegicus [16]
  Activity: Carcinogenic activity

## Nc1ccc2c(c1)Cc1ccccc1-2
Rattus norvegicus [27]
  Activity: Carcinogenic activity
Rattus norvegicus [28]
  Activity: Carcinogenic activity
Rattus norvegicus [29]
  Activity: Carcinogenic activity
Rattus norvegicus [30]
  Activity: Carcinogenic activity
Rattus norvegicus [31]
  Activity: Carcinogenic activity
Rattus norvegicus [32]
  Activity: Carcinogenic activity

## Nc1ccc(-c2ccc(N)cc2)cc1
Rattus norvegicus [4]
  Activity: Carcinogenic activity
Rattus norvegicus [5]
  Activity: Carcinogenic activity
Rattus norvegicus [11]
  Activity: Carcinogenic activity
Rattus norvegicus [12]
  Activity: Carcinogenic activity
Rattus norvegicus [22]
  Activity: Carcinogenic activity

## CC(=O)N(O)c1ccc2c(c1)Cc1ccccc1-2
Rattus norvegicus [27]
  Activity: Carcinogenic activity
Rattus norvegicus [33]
  Activity: Carcinogenic activity
Rattus norvegicus [29]
  Activity: Carcinogenic activity
Rattus norvegicus [31]
  Activity: Carcinogenic activity
Rattus norvegicus [32]
  Activity: Carcinogenic activity
Rattus norvegicus [34]
  Activity: Carcinogenic activity

## CC(=O)Nc1cccc2c1Cc1ccccc1-2
Rattus norvegicus [2]
  Activity: Carcinogenic activity
Rattus norvegicus [3]
  Activity: Carcinogenic activity

## Nc1ccc(-c2ccc(F)cc2)cc1
Rattus norvegicus [4]
  Activity: Carcinogenic activity
Rattus norvegicus [11]
  Activity: Carcinogenic activity
Rattus norvegicus [35]
  Activity: Carcinogenic activity

## CC(=O)Nc1csc(-c2ccc([N+](=O)[O-])o2)n1
Rattus norvegicus [4]
  Activity: Carcinogenic activity
Rattus norvegicus [11]
  Activity: Carcinogenic activity
Rattus norvegicus [6]
  Activity: Carcinogenic activity

## CC(=O)N(O)c1ccc2c(c1)-c1ccccc1C2
Rattus norvegicus [2]
  Activity: Carcinogenic activity
Rattus norvegicus [3]
  Activity: Carcinogenic activity

## CC(=O)N(O)c1cccc2c1Cc1ccccc1-2
Rattus norvegicus [2]
  Activity: Carcinogenic activity
Rattus norvegicus [3]
  Activity: Carcinogenic activity

## Nc1ccc2ccccc2c1
Rattus norvegicus [10]
  Activity: inactive
Rattus norvegicus [17]
  Activity: inactive
Rattus norvegicus [18]
  Activity: inactive
Rattus norvegicus [19]
  Activity: inactive
Rattus norvegicus [20]
  Activity: inactive
Rattus norvegicus [21]
  Activity: inactive

## CCN(CC)c1ccc(/C=C/c2ccccc2)cc1
Rattus norvegicus [36]
  Activity: Carcinogenic activity
Rattus norvegicus [22]
  Activity: Carcinogenic activity

## Nc1ccc(/C=C/c2ccc(F)cc2)cc1
Rattus norvegicus [4]
  Activity: Carcinogenic activity
Rattus norvegicus [11]
  Activity: Carcinogenic activity
Rattus norvegicus [19]
  Activity: Carcinogenic activity
Rattus norvegicus [12]
  Activity: Carcinogenic activity
Rattus norvegicus [22]
  Activity: Carcinogenic activity

## ONc1ccc2ccccc2c1
Rattus norvegicus [1]
  Activity: Carcinogenic activity
Rattus norvegicus [3]
  Activity: Carcinogenic activity

## Nc1ccc2cc3ccccc3cc2c1
Rattus norvegicus [37]
  Activity: Carcinogenic activity
Rattus norvegicus [38]
  Activity: Carcinogenic activity
Rattus norvegicus [39]
  Activity: Carcinogenic activity

## CC(=O)N(O)c1ccc2c(ccc3ccccc32)c1
Rattus norvegicus [4]
  Activity: Carcinogenic activity
Rattus norvegicus [11]
  Activity: Carcinogenic activity
Rattus norvegicus [6]
  Activity: Carcinogenic activity

## Cc1cc(/N=N/c2ccccc2C)ccc1N
Rattus norvegicus [4]
  Activity: Carcinogenic activity
Rattus norvegicus [12]
  Activity: Carcinogenic activity

## ONc1ccc2c(c1)Cc1ccccc1-2
Rattus norvegicus [4]
  Activity: Carcinogenic activity
Rattus norvegicus [5]
  Activity: Carcinogenic activity
Rattus norvegicus [11]
  Activity: Carcinogenic activity
Rattus norvegicus [6]
  Activity: Carcinogenic activity
Rattus norvegicus [22]
  Activity: Carcinogenic activity

## CC(=O)Nc1ccc2c(c1)Cc1ccccc1-2
Rattus norvegicus [27]
  Activity: Carcinogenic activity
Rattus norvegicus [33]
  Activity: Carcinogenic activity
Rattus norvegicus [29]
  Activity: Carcinogenic activity
Rattus norvegicus [31]
  Activity: Carcinogenic activity
Rattus norvegicus [32]
  Activity: Carcinogenic activity
Rattus norvegicus [40]
  Activity: Carcinogenic activity

## Cc1ccc(C(=O)Nc2ccc(S(=O)(=O)O)c3cc(S(=O)(=O)O)cc(S(=O)(=O)O)c23)cc1NC(=O)c1cccc(NC(=O)Nc2cccc(C(=O)Nc3cc(C(=O)Nc4ccc(S(=O)(=O)O)c5cc(S(=O)(=O)O)cc(S(=O)(=O)O)c45)ccc3C)c2)c1
Rattus norvegicus [9]
  Activity: Active
Rattus norvegicus [10]
  Activity: Active
Rattus norvegicus [14]
  Activity: Active
Rattus norvegicus [18]
  Activity: inactive
Rattus norvegicus [21]
  Activity: inactive

Reference: ChEMBL document CHEMBL1121791, “Computer-assisted structure-activity studies of chemical carcinogens. Aromatic amines” (J Med Chem, 1981)
